# According to US9271960B2, “Tetrahydrocarbazoles as active agents for inhibiting VEGF production by translational control” (PTC Therapeutics, Inc., priority 2004, dated 2016):
# Tested on: VEGF
# Assay: Hypoxia-inducible endogenous VEGF expression ELISA in HeLa cells
# Format: cell-based
# Settings: Homo sapiens, HeLa, compounds 191-239, hypoxic conditions, VEGF protein by ELISA, read-out: ELISA Activity EC50
# How it was run: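 HeLa cells held 24–48 h in hypoxia (1% O2) with a concentration series of compound; VEGF secreted into media quantified by ELISA against a standard curve. Parallel Cell Titer Glo viability under identical conditions gives CC50; EC50 from percent-inhibition curves.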
row,EC50 [nM],Compound
1,< 10,OC1CCc2c([nH]c3ccc(Br)cc23)C1c1ccc(Cl)cc1 (centres unmarked) [Compound 238]
2,< 10,OC1CCc2c([nH]c3ccc(Br)cc23)C1c1ccc(F)cc1 (centres unmarked) [Compound 239]
